{"source": "patent US11202773B2", "about": "“Locally bioavailable drugs” (UNIVERSITY OF HOUSTON SYSTEM, priority 2015, dated 2021)", "key": {"[1]": {"system": "human Colon S9", "experiment": "Sulfation by human colon S9", "type": "in vitro ADME", "settings": "substrate 10 μM", "procedure": "(§1) FIG. 5D is a bar graph illustrating in vitro metabolism of phenolics. Glucuronidation rates of 6a1-6a4 by human liver and intestinal microsomes. Additional metabolic rates of various locally bioavailable COX-2 inhibitors are in Table 4. […]. The incubation systems were: for glucuronidation, 0.88 mM magnesium chloride (MgCl2), 4.4 mM saccharolactone, 0.022 mg/mL alamethicin, 3.5 mM uridine 5′-diphospho-glucuronic acid (UDPGA), 10 μM substrates and different concentrations of microsomes in 50 mM potassium phosphate buffer (pH 7.4); for sulfation, 10 mM dithiothreitol (DTT), 5 mM MgCl2, 100 μM 3′-phosphoadenosine-5′-phosphosulfate (PAPS),10 μM substrate and different concentrations of S9 fractions in 50 mM potassium phosphate buffer (pH 7.4).\n(§2) In vitro tools were employed to help predict the in vivo metabolism rates of the COX-2 inhibitors that are phenolics. The microsomes and S9 fractions prepared from colon or liver were used to determine the in vivo glucuronidation and sulfation rates of the phenolic compounds, respectively. By employing microsomes and S9 fractions prepared from both rats and humans, it could be determined if the results obtained in the rat model could be reasonably extrapolated to humans. In these experiments, raloxifene and genistein, two phenolic compounds which undergo extensive first-pass metabolism, were selected as controls."}, "[2]": {"system": "human Colon S9", "experiment": "Glucuronidation by human colon S9", "type": "in vitro ADME", "settings": "substrate 10 μM", "procedure": "as §1\nas §2, with “The microsomes and S9 fractions prepared from colon or liver were used to determine the in vivo glucuronidation and sulfation rates of the phenolic compounds, respectively.” left out"}}}
{"smiles": "Cc1ccc(-c2cc(COc3ccccc3O)nn2-c2ccc(S(N)(=O)=O)cc2)cc1", "note": "[Compound 6a1]", "values": [{"measurement": "Sulfation rates by human Colon S9 (Mean)", "setting": "[1]", "result": 110, "unit": "pmol/mg/min"}, {"measurement": "Glucuronidation rates by human Colon S9 (Mean)", "setting": "[2]", "result": 1080, "unit": "pmol/mg/min"}]}
